In brackets after ≈: the same amount, converted by molar mass.
Legend:
[1] = system: Escherichia coli R477-100; test: Antibacterial activity, MIC by double-microdilution method; assay type: cell-based; conditions: for Gram-negative MIC a: Table 2, without DTT; for Gram-negative MIC a / Gram-negative MIC, DTT 10 mM / Gram-negative MIC, DTT 0 mM / Gram-negative MIC, DTT 2 mM: Escherichia coli R477-100; for Gram-negative MIC, DTT 0 mM / Gram-negative MIC, DTT 2 mM: Table 3; for improvement of MIC in the presence of DTT: 10 mM DTT vs without DTT, Gram-negative E. coli R477-100
Escherichia coli 25922 = test: as above; assay type: cell-based; conditions: Table 2; Escherichia coli 25922
[2] = system: Staphylococcus Epidermidis; test: as above; assay type: cell-based; conditions: Table 2
Bacillus Subtilis = test: as above; assay type: cell-based; conditions: Bacillus Subtilis; for Gram-positive MIC d: Table 2; for Gram-positive MIC, DTT 0 mM / Gram-positive MIC, DTT 2 mM / Gram-positive MIC, DTT 10 mM: Table 3
[3] = system: supercoiled (+) pHOT-1 plasmid DNA; test: DNA cleavage assay (gel electrophoresis); assay type: biochemical; conditions: for DNase activity (cleavage of supercoiled plasmid, form I to form II): absence of adjuvants, HEPES buffer (50 mM, pH 7.4), 5 hours
Experimental: Removal of Ligands Prior to Electrophoresis was performed when more than 100 μM of Cu(II)-ligand or Co(III) ligand (at any concentration) complexes were employed that is, for DNA cleavage assays that were performed in the absence of any adjuvants. An Amberlyst® 15 (Sigma Aldrich) ion-exchange resin was prepared according to the reported literature [Hettich et al. J. Am. Chem. Soc. 1997, 119 (24), 5638-5647] and stored at −20° C. Before use, 0.5 gram of the exchanger was mixed with 250 μL of water. After stopping the DNA-cleavage reaction by addition of EDTA (54 mM, 15 minutes incubation at 37° C.), 10 μL of the exchanger suspension was added, vortexed, and incubated at 37° C. for 15 minutes before centrifugation and electrophoresis.
DNA cleavage activity of the tested Complexes towards supercoiled (+) pHOT-1 plasmid DNA (TopoGEN) was monitored by gel electrophoresis. In a typical experiment, plasmid DNA (200 ng, […]) in HEPES buffer (50 mM, pH 7.4) was mixed with different concentrations of a tested metal complex in the presence or absence of ascorbic acid (0.32 mM). All stock solutions of buffers and of the metal complexes were prepared using HPLC grade water (ChromAR®). Molecular biology reagent grade water (Sigma) was added up to a total reaction volume of 30 μL before incubation for a given time. For the ascorbic acid assays, the reaction was quenched immediately after incubation with EDTA (54 mM). For analysis, 10 μL of loading buffer (40% sucrose, 100 mM Tris-HCl (pH 7.5), 1 mM EDTA, 0.5 mg·mL^−1 bromophenol blue) was added to the incubated solution and loaded onto an agarose (SeaKem LE) gel [1% in TAE×1 buffer (40 mM Tris, 20 mM acetic acid, 1 mM EDTA)]. Electrophoresis was carried out at 60 V for 2 hours. Gels were stained with 1 μg·mL^−1 ethidium bromide for 30 minutes and de-stained in TAE×1 buffer. DNA bands were visualized with medium-range ultraviolet light using Bio-Rad Gel Doc XR+ imaging system. The quantity of different DNA forms (I or II) was estimated using ImageJ software.
Chem. 2015, 2015 (28), 4722-4730; Kashiba-Iwatsuki et al. FEBS Lett. 1996, 389 (2), 149-15].
The copper complex of compound 2 (2-Cu(II)) was used as the positive control in these assays.

| SMILES | Gram-negative MIC a [1] | Gram-negative MIC b (Escherichia coli 25922) | Gram-positive MIC c [2] | Gram-positive MIC d (Bacillus Subtilis) | DNase activity at micromolar concentrations ([3]; FIG. 32: 0.2 μg DNA over 2 hours (Co(III)-cyclen, 4-Co(III)), 0.6 μg DNA over 10 hours (23-Co(III))) | Gram-negative MIC, DTT 10 mM [1] | Gram-negative MIC, DTT 0 mM [1] | Gram-negative MIC, DTT 2 mM [1] | Gram-positive MIC, DTT 0 mM (Bacillus Subtilis) | Gram-positive MIC, DTT 2 mM (Bacillus Subtilis) | Gram-positive MIC, DTT 10 mM (Bacillus Subtilis) | MIC ([1]; E. coli R477-100, metal-free compound) | DNase activity (cleavage of supercoiled plasmid, form I to form II) [3] | improvement of MIC in the presence of DTT [1] |
| --- | --- | --- | --- | --- | --- | --- | --- | --- | --- | --- | --- | --- | --- | --- |
| O.O=C(O)c1cn(C2CC2)c2cc(N3CCN(Cc4ccc(CN5CCNCCNCCNCC5)cc4)CC3)c(F)cc2c1=O.[Co+3].[OH-] [4-Co(III)] | 12 µg/mL | 6 µg/mL | 6 µg/mL | 6 µg/mL | strong DNA binding but no DNase activity | – | – | – | – | – | – | – | – | – |
| NCCN1CCNCCNCCN(CCCCc2ccc(CN3CCN(c4cc5c(cc4F)c(=O)c(C(=O)O)cn5C4CC4)CC3)cc2)CC1 [Compound 26] | 12 µg/mL | 12 µg/mL | 6 µg/mL | 6 µg/mL | – | 12 µg/mL | 12 µg/mL | 6 µg/mL | 6 µg/mL | 6 µg/mL | 6 µg/mL | – | – | – |
| NCCN1CCNCCNCCN(Cc2ccc(CN3CCN(c4cc5c(cc4F)c(=O)c(C(=O)O)cn5C4CC4)CC3)cc2)CC1 [Compound 23] | 24 µg/mL | 24 µg/mL | 12 µg/mL | 6 µg/mL | – | 12 µg/mL | 24 µg/mL | 12 µg/mL | 6 µg/mL | 6 µg/mL | 3 µg/mL | 24 µg/mL (≈ 37 µM) | significant DNase activity | – |
| N=C(N)NCCN1CCNCCNCCN(CCc2ccc(CN3CCN(c4cc5c(cc4F)c(=O)c(C(=O)O)cn5C4CC4)CC3)cc2)CC1 [Compound 20] | 24 µg/mL | 24 µg/mL | 24 µg/mL | 12 µg/mL | – | 24 µg/mL | 24 µg/mL | 12 µg/mL | 12 µg/mL | 6 to 12 µg/mL | 12 µg/mL | – | – | – |
| NCCN1CCNCCNCCN(Cc2ccc(CN3CCN(c4cc5c(cc4F)c(=O)c(C(=O)[O-])cn5C4CC4)CC3)cc2)CC1.[Cu+2] [23-Cu(II)] | 24 µg/mL | 24 µg/mL | 12 µg/mL | 12 µg/mL | – | 3 µg/mL | 24 µg/mL | 6 µg/mL | 12 µg/mL | 6 µg/mL | 3 µg/mL | – | significant hydrolytic DNase activity | significant improvement in antibacterial activity |
| N=C(N)NCCN1CCNCCNCCN(CCCc2ccc(CN3CCN(c4cc5c(cc4F)c(=O)c(C(=O)O)cn5C4CC4)CC3)cc2)CC1 [Compound 21] | 12 µg/mL | 12 µg/mL | 6 µg/mL | 6 µg/mL | – | 6 µg/mL | 12 µg/mL | 6 µg/mL | 12 µg/mL | 12 µg/mL | 6 µg/mL | – | – | – |
| O.O=C(O)c1cn(C2CC2)c2cc(N3CCN(CCCCCCCN4CCNCCNCCNCC4)CC3)c(F)cc2c1=O.[Co+3].[OH-] [2-Co(III)] | 12 µg/mL | 6 µg/mL | 24 µg/mL | 12 to 24 µg/mL | – | – | – | – | – | – | – | – | – | – |
| O.O=C(O)c1cn(C2CC2)c2cc(N3CCN(CCCCCCCCN4CCNCCNCCNCC4)CC3)c(F)cc2c1=O.[Co+3].[OH-] [3-Co(III)] | 12 µg/mL | 6 µg/mL | 12 to 24 µg/mL | 12 µg/mL | – | – | – | – | – | – | – | – | – | – |
| O.O=C(O)c1cn(C2CC2)c2cc(N3CCN(CCCCCCCCN4CCNCCNCCNCC4)CC3)c(F)cc2c1=O.[Cu+2] [3-Cu(II)] | 12 µg/mL | 6 µg/mL | 6 µg/mL | 6 µg/mL | – | – | – | – | – | – | – | – | only very limited activity | – |
| N=C(N)NCCN1CCNCCNCCN(Cc2ccc(CN3CCN(c4cc5c(cc4F)c(=O)c(C(=O)O)cn5C4CC4)CC3)cc2)CC1 [Compound 19] | 12 µg/mL | 12 µg/mL | 6 µg/mL | 6 µg/mL | – | 12 µg/mL | 12 µg/mL | 12 µg/mL | 6 µg/mL | 6 to 12 µg/mL | 6 µg/mL | – | significant DNase activity | – |
| O.O=C(O)c1cn(C2CC2)c2cc(N3CCN(CCCCCCN4CCNCCNCCNCC4)CC3)c(F)cc2c1=O.[Co+3].[OH-] [1-Co(III)] | 12 µg/mL | 12 µg/mL | 24 µg/mL | 12 µg/mL | – | – | – | – | – | – | – | – | – | – |
| [Cl][Cu][Cl] [CuCl2, reference compound] | >384 µg/mL | >384 µg/mL | >384 µg/mL | >384 µg/mL | – | – | – | – | – | – | – | – | – | no change whatsoever |
| O=C(O)c1cn(C2CC2)c2cc(N3CCN(CCCCCCCCN4CCNCCNCCNCC4)CC3)c(F)cc2c1=O [Compound 3] | 24 to 48 µg/mL | 12 µg/mL | 6 µg/mL | 6 µg/mL | – | – | – | – | – | – | – | – | – | – |

Reference: patent US20230357189A1, “MODIFIED FLUOROQUINOLONES AND USES THEREOF” (Technion Research & Development Foundation Limited, priority 2021, published 2023)
